By IC50 is commonly meant the concentration that gives 50% inhibition.

Test system in the first data set: not given
Test: not given
The note with it: phase IIa trial, type 2 diabetes, 28-days; cited from earlier work.
For the molecule `CNC(=O)c1ccc(-c2ccc(C3(C(=O)N4CC[C@@]5(C4)OC(=O)c4ccccc45)CC3)cc2)cn1` [INCB13739], the safety and tolerability result is “safe and well tolerated without any serious side effects and hypoglycemia”.

In another data set the target is T1, human full length HSD11 β 1 (Homo sapiens, UniProt P28845).
T1 construct: transient expression of human full length HSD11 β 1 expression vector; host or cells: CHO cells (transient transfection)
T1 sequence (P28845 whole entry): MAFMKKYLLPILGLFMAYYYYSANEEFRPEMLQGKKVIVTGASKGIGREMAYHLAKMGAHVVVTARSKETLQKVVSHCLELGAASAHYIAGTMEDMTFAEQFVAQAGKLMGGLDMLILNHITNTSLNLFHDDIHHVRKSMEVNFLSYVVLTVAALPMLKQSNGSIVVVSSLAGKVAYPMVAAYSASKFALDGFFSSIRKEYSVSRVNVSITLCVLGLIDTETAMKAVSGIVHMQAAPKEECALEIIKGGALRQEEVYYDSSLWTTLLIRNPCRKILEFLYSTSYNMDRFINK
In words: In Vitro HSD11β1 Inhibition Assay. The format is cell-based. The note with it: CHO cells transiently expressing human HSD11β1; 200 nM cortisone+500 uM NADPH overnight; cortisone to cortisol by LC/MS-MS; read-out: 11βHSD1 (IC50). An outline of the steps:
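CHO cells transiently transfected with human full-length HSD11β1 were re-seeded after 24 h and, 24 h later, incubated overnight with 200 nM cortisone plus 500 uM NADPH and inhibitor. Cortisone-to-cortisol conversion was measured by LC/MS-MS. IC50 from an 8-point log concentration–inhibition curve.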
Take `O=C(CC(O)(c1c[nH]c2ccccc12)C(F)(F)F)N1CCCC2CCCCC21` (centres unmarked) [Example 108, 4,4,4-trifluoro-3-hydroxy-3-(1H-indol-3-yl)-1-(octahydroquinolin-1(2H)-yl)butan-1-one]: the IC50 is above 250 nM.

As to `CC(CC(=O)N1CCCC2C(C(=O)O)CCCC21)c1c[nH]c2cccc(-c3ccc(F)o3)c12` (single isomer, unassigned) [Compound 248, 1-{3-[4-(5-fluorofuran-2-yl)-1H-indol-3-yl]butanoyl}decahydroquinoline-5-carboxylic acid], the IC50 is below 100 nM.

For `CC(CC(=O)N1C(C)CCC2C(C(=O)O)CCCC21)c1c[nH]c2cccc(Cl)c12` (centres unmarked) [Compound 234, 1-[3-(4-chloro-1H-indol-3-yl)butanoyl]-2-methyldecahydroquinoline-5-carboxylic acid], the IC50 is above 250 nM.

Take `CC(CC(=O)N1CCCC2C(C(=O)O)CCCC21)c1c[nH]c2cccc(C3CC3)c12` (single isomer, unassigned) [Compound 200, 1-[3-(4-cyclopropyl-1H-Indol-3-yl)butanoyl]decahydroquinoline-5-carboxylic acid]: the IC50 is below 100 nM.

In the case of `COC(=O)C1CCN(C(=O)CC(c2c[nH]c3ccccc23)C(C)C)C2CCCCC12` (centres unmarked) [Example 101, methyl 1-[3-(1H-indol-3-yl)-4-methylpentanoyl]decahydroquinoline-4-carboxylate], the IC50 is above 250 nM.

As to `CC(CC(=O)N1CCCC2CCCCC21)c1cn(C)c2ccccc12` (centres unmarked) [Example 94, 3-(1-methyl-1H-indol-3-yl)-1-(octahydroquinolin-1(2H)-yl)butan-1-one], the IC50 lay within 150 to 200 nM.

In the case of `CC(=O)NC(Cc1c[nH]c2ccccc12)C(=O)N1CCCC2CCCCC21` (centres unmarked) [Example 96, N-[3-(1H-indol-3-yl)-1-(octahydroquinolin-1(2H)-yl)-1-oxopropan-2-yl]acetamide], the IC50 was above 250 nM.

As for `O=C1CCN(C(=O)CCc2c[nH]c3ccccc23)C2CCCCC12` (centres unmarked) [Compound 26, 1-[3-(1H-indol-3-yl)propanoyl]octahydroquinolin-4(1H)-one], the IC50 was above 250 nM.

Turning to `CO/N=C1/CCN(C(=O)CCc2c[nH]c3ccccc23)C2CCCCC12` (centres unmarked) [Compound 36], the IC50 is above 250 nM.

As for `Cn1cc(CCC(=O)N2CCCC3CCCCC32)c2ccccc21` (centres unmarked) [Compound 13, 3-(1-methyl-1H-indol-3-yl)-1-(octahydroquinolin-1(2H)-yl)propan-1-one], the IC50 is below 100 nM.

As for `COC(=O)C1CCN(C(=O)CCc2nc3ccccc3s2)C2CCCCC12` (centres unmarked) [Example 77, methyl 1-[3-(1,3-benzothiazol-2-yl)propanoyl]decahydroquinoline-4-carboxylate], the IC50 was above 250 nM.

With `CC(CC(=O)N1CCCC2C(C(=O)O)CCCC21)c1c[nH]c2cccc(-c3cccn3C)c12` (centres unmarked) [Compound 244, 1-{3-[4-(1-methyl-1H-pyrrol-2-yl)-1H-indol-3-yl]butanoyl}decahydroquinoline-5-carboxylic acid], the IC50 was above 250 nM.

Turning to `CC(CC(=O)N1CCC(C(=O)O)C2CCCCC21)c1c[nH]c2nccc(Cl)c12` (centres unmarked) [Example 171, 1-[3-(4-chloro-1H-pyrrolo[2,3-b]pyridin-3-yl)butanoyl]decahydroquinoline-4-carboxylic acid], the IC50 is above 250 nM.

Turning to `CC(CC(=O)N1CCCC2CCCCC21)c1c[nH]c2ncccc12` (single isomer, unassigned) [Example 145, 1-(octahydroquinolin-1(2H)-yl)-3-(1H-pyrrolo[2,3-b]pyridin-3-yl)butan-1-one], the IC50 was below 100 nM.

On to `Cc1cccc2[nH]cc(CCC(=O)N3CCC(=O)C4CCCCC43)c12` (centres unmarked) [Compound 32, 1-[3-(4-methyl-1H-indol-3-yl)propanoyl]octahydroquinolin-4(1H)-one], for which the IC50 was above 250 nM.

Regarding `CC(CC(=O)N1CCCC2C(C(=O)NCC(=O)O)CCCC21)c1c[nH]c2cccc(C3CC3)c12` (centres unmarked) [Compound 247, N-({1-[3-(4-cyclopropyl-1H-indol-3-yl)butanoyl]decahydroquinolin-5-yl}carbonyl)glycine], the IC50 is above 250 nM.
